How the values were obtained:
[1] = Stability measured by degradation products (DP, HPLC area-%); format: physicochemical
Description: DPs are analyzed by HPLC (method see Table 3). They are calculated as area-% products. Compositions of the mixtures in mass % are as follows.
For salts in water, acetonitrile was added to dilute the 0.2% slurry to 0.1% clear solution. For salts in methanol, acetonitrile or acetonitrile/water (50:50, v/v), the corresponding solvent or solvent mixture was added to dilute the 0.2% slurry to 0.1% clear solution. For salts in 0.5% CMC, HPMC cellulose 4000 0.5%, or Tween 80, 0.8%, tetrahydrofuran and water were added to dilute the 2% slurry to 0.1% clear solution and to reach tetrahydrofuran/water 50:50 (v/v). For bulk stability samples (including the samples in excipient mixtures), acetonitrile/water (80:20, v/v) was added to make 0.1% clear solution.

[2] = Stability: appearance color (CL); format: physicochemical
[3] = Solid form after stress test (XRPD/DSC); format: physicochemical
[4] = Bulk corrosivity with stainless steel coupon; format: physicochemical; settings: 2 day 80% r.h. with stainless steel coupon; change in the surface of the coupon
[5] = pH of 1% solution or suspension; format: physicochemical; settings: In water
Description: The solutions were stirred continuously as the pH was measured.

[6] = Thermogravimetry (weight loss / loss on drying); format: physicochemical; settings: at 150° C.
[7] = Hygroscopicity, DVS sorption/desorption isotherms; format: physicochemical; settings: for DVS Desorp. Weight % chg. / DVS Sorp. Weight % chg.: 25° C.
Description: Sorption/desorption isotherms: Instrument, Surface Measurement System DVS-1 temperature at 25±0.5° C.

[8] = Crystal modification after 72 hours vibration (polymorphism behavior of slurries); format: physicochemical
Source text: The slurries were filtered and the solids collected for XRPD analyses.

[9] = pH 6.8
physchem = settings: 25 °C, thermodynamic from solid, Solubility (approx. at 25° C., mg/ml)

What does the source list for `Cc1c(C(=O)Nc2ccc(N3C[C@@H](C)O[C@@H](C)C3)nc2)cccc1-c1ccc(OC(F)(F)F)cc1.Cl` [Hydrochloride, mono]?
DP [%] ([1]; 0.2% solutions or suspensions, 2 week 50° C., Acetonitrile): 0.38%; DP [%] ([1]; 0.2% solutions or suspensions, 2 week 50° C., Acetonitrile/Water (50:50)): 1.72%; DP [%] ([1]; 0.2% solutions or suspensions, 2 week 50° C., Methanol): 2.06%; DP [%] ([1]; 0.2% solutions or suspensions, 2 week 50° C., Water): 0.31%; DP [%] ([1]; 2% (or 5%) solutions or suspensions, 1 day room temperature, 0.5% CMC): 0.33%; DP [%] ([1]; 2% (or 5%) solutions or suspensions, 1 day room temperature, HPMC Cellulose 4000 0.5%): 0.32%; DP [%] ([1]; 2% (or 5%) solutions or suspensions, 1 day room temperature, Tween 80, 0.8%): 0.31%; DP [%] ([1]; 2 weeks 50° C., tight container, 1% in mixture 1 (Lactose/maize starch/Aerosil/Magnesiumstearate)): 0.27%; DP [%] ([1]; 2 weeks 50° C., tight container, 1% in mixture 2 (Mannitol/Avicel PH 102/Cutina HR)): 0.39%; DP [%] ([1]; 2 weeks 50° C./75% r.h., 1% in mixture 1): 2.85%; DP [%] ([1]; 2 weeks 50° C./75% r.h., 1% in mixture 2): 0.31%; DP [%] ([1]; Solid state, 2 week 50° C., tight container, Bulk (HPLC)): 0.31%; DP [%] ([1]; Solid state, 2 week 50° C./75% r.h., Bulk (HPLC)): 0.29%; DP [%] ([1]; Solid state, 2 week 80° C., tight container, Bulk (HPLC)): 0.35%; DP [%] ([1]; Solid state, 2 week 80° C./75% r.h., Bulk (HPLC)): 0.35%; DP [%] ([1]; Unstressed drug substance, bulk): 0.30%; DP [%] ([1]; Xenon light (approx. 1200 kLuxh), Bulk (HPLC)): 1.46%; CL ([2]; 0.2% solutions or suspensions, 2 week 50° C., Acetonitrile/Water (50:50), clear solution after stress test (*)): A *; CL ([2]; 0.2% solutions or suspensions, 2 week 50° C., Acetonitrile, clear solution after stress test (*)): A *; CL ([2]; 0.2% solutions or suspensions, 2 week 50° C., Methanol, clear solution after stress test (*)): A *; CL ([2]; 0.2% solutions or suspensions, 2 week 50° C., Water, suspension (↓)): A ↓; CL ([2]; 2% (or 5%) solutions or suspensions, 1 day room temperature, 0.5% CMC, suspension (↓)): A ↓; CL ([2]; 2% (or 5%) solutions or suspensions, 1 day room temperature, HPMC Cellulose 4000 0.5%, suspension (↓)): A ↓; CL ([2]; 2% (or 5%) solutions or suspensions, 1 day room temperature, Tween 80, 0.8%, suspension (↓)): A ↓; Bulk (XRPD): change ([3]; Solid state, 2 week 50° C., tight container): No; Bulk (XRPD): change ([3]; Solid state, 2 week 50° C./75% r.h., footnote: new peak in the XRPD pattern compared with unstressed diphosphate): No; Bulk (DSC): change ([3]; Solid state, 2 week 80° C., tight container): No; Bulk (XRPD): change ([3]; Solid state, 2 week 80° C./75% r.h., footnote: pattern similar to that of phosphate, with one extra peak): No; Bulk (XRPD): change ([3]; Xenon light (approx. 1200 kLuxh)): No; Bulk corrosivity [4]: No visible change; pH of 1% solution or suspension [5]: 1.69; Thermogravimetry (weight loss in %) ([6]; Heating rate 10° C./min): 0.48% at 150 °C; Loss on drying by TGA (%) ([6]; Hygroscopicity, as is): 0.48 at 150 °C %; XRPD after DVS test [7]: No change; DVS Desorp. Weight % chg. ([7]; RH 0.0%): −0.0114%; DVS Sorp. Weight % chg. ([7]; RH 0.0%): −0.0001%; DVS Desorp. Weight % chg. ([7]; RH 25.0%): 0.3799%; DVS Sorp. Weight % chg. ([7]; RH 25.0%): 0.3334%; DVS Desorp. Weight % chg. ([7]; RH 50.0%): 0.4932%; DVS Sorp. Weight % chg. ([7]; RH 50.0%): 0.4660%; DVS Desorp. Weight % chg. ([7]; RH 75.0%): 0.6069%; DVS Sorp. Weight % chg. ([7]; RH 75.0%): 0.5753%; DVS Desorp. Weight % chg. ([7]; RH 85.0%): 0.6817%; DVS Sorp. Weight % chg. ([7]; RH 85.0%): 0.6525%; DVS Desorp. Weight % chg. ([7]; RH 95.0%): 0.8784%; DVS Sorp. Weight % chg. ([7]; RH 95.0%): 0.8784%; Crystal modification after 72 hours vibration (DSC/XRPD/TG) ([8]; 0.1N HCl solution): XRPD pattern; Crystal modification after 72 hours vibration (DSC/XRPD/TG) ([8]; Acetone, N—no, Y—yes): N, no form change; Crystal modification after 72 hours vibration (DSC/XRPD/TG) ([8]; Acetonitrile, N—no, Y—yes): N, no form change; Crystal modification after 72 hours vibration (DSC/XRPD/TG) ([8]; Ethanol, N—no, Y—yes): N, no form change; Crystal modification after 72 hours vibration (DSC/XRPD/TG) ([8]; Ethyl acetate, N—no, Y—yes): N, no form change; Crystal modification after 72 hours vibration (DSC/XRPD/TG) ([8]; Iso Propanol, N—no, Y—yes): N, no form change; Crystal modification after 72 hours vibration (DSC/XRPD/TG) ([8]; Water): Dissociated to free; Final pH of slurry ([8]; Water): Final pH 1.94; Crystal modification after 72 hours vibration (DSC/XRPD/TG) ([8]; pH 3 buffer): Dissociated to free; Final pH of slurry ([8]; pH 3 buffer): Final pH 2.89; Crystal modification after 72 hours vibration (DSC/XRPD/TG) ([8]; pH 6.8 buffer): No form change; Final pH of slurry ([8]; pH 6.8 buffer): Final pH 5.93; Solubility (approx. at 25° C., mg/ml) ([9]; 1 day): 0.000 (Final mg/ml; Final pH of solubility sample [9]: pH 5.93); solubility at 1 day (physchem; pH 1, simulated gastric fluid): 2 µg/mL; solubility at 1 day (physchem; water): 5 µg/mL
